According to US9643967B2, “Pyrrolo[3,2-c]pyridine derivatives as TLR inhibitors” (TAKEDA PHARMACEUTICAL COMPANY LIMITED, priority 2013, dated 2017):
Where two headings read alike, the source gives them in different places.

Experiments:
mTLR7 = target: T1, mTLR7 (Mus musculus, UniProt P58681); test: mTLR7 antagonism (IL-6 and TNF-α release assay) in mouse splenocytes, R0006/DOTAP stimulated; type: cell-based; details: 1 μM, mouse splenocytes
T1 construct: Splenocytes isolated from male C57/BL6 mice; from tissue; host or cells: splenocytes from the spleen of male C57BL/6 mice
T1 sequence (P58681 27-1050): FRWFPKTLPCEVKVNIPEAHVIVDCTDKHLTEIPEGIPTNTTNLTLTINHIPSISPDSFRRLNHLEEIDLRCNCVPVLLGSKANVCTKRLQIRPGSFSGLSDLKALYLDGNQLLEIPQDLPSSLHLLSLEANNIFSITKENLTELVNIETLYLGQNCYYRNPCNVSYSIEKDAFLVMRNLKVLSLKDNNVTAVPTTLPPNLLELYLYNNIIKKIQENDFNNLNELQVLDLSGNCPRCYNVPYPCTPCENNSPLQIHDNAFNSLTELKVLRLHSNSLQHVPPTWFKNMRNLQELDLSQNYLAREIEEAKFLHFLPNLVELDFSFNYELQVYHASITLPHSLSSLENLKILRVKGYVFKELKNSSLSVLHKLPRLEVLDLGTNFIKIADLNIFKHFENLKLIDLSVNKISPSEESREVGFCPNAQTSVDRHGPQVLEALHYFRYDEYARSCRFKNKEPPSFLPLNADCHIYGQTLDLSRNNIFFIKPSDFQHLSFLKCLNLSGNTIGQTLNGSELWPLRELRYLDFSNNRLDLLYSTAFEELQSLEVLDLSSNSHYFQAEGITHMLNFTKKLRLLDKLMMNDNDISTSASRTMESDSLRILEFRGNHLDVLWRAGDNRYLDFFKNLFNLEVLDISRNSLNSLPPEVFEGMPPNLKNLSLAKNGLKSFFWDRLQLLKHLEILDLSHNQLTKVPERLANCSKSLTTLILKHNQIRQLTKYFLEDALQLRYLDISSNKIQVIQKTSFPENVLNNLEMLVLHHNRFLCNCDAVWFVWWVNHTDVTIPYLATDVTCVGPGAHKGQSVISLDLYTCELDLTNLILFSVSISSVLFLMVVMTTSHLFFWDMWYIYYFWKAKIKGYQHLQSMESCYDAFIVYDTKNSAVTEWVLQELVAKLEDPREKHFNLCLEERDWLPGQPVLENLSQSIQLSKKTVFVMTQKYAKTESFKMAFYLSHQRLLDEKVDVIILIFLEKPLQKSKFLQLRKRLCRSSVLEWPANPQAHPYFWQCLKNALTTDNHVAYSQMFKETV
In short: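 C57BL6 splenocytes (0.2 million/well) preincubated 30 min with compounds (30 μM to 1 nM, 0.3% DMSO), then stimulated with R0006/DOTAP liposome complex at 1 μg/ml final, overnight, 37 °C, 5% CO2. IL-6 and TNF-α in supernatant by ELISA; IC50 from inhibition curves.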

[1] = test system: lupus-prone MRL lpr/lpr mice; test: Mouse lupus disease model, anti-dsDNA IgG titers (ELISA); type: in vivo; details: female MRL/lpr mice; for mean anti-dsDNA IgG titers after 6 weeks of treatment: oral QD, 3, 10 and 30 mg/kg
Description: Mouse Lupus Disease Model
Examples B6 and B11 were tested in well studied mouse model of lupus, lupus-prone MRL lpr/lpr mice that develop disease similar to human SLE [J Exp Med., 1978, 148 (5), 1198-1215]. These mice develop spontaneous systemic autoimmunity with both molecular (IFN signature) and clinical (autoantibody production and glomerulonephritis) features similar to human SLE. Anti-dsDNA antibodies are correlated with human SLE and the reduction in anti-dsDNA antibodies is believed to be of potential clinical benefit. Positive TLR7 and/or TLR9 target validation results have been reported for this disease model.
Mouse Lupus Disease Model Strain:
Female MRL/lpr mice were purchased from Jackson Laboratories (USA) which manifest spontaneous lupus disease. Female MRL/lpr mice were treated for 9 weeks by oral route once a day with TLR-7/9 antagonists [Examples B6 and B11] at 3, 10 and 30 mg/kg doses. Prednisolone (2 mg/kg, P.O., QD) was used as a positive control during the studies. At the end of treatment period, animals were sacrificed and blood samples were collected to estimate anti-dsDNA IgG titers using anti-dsDNA IgG ELISA kit, Alpha Diagnostics, USA.

[2] = IL-6 release, read-out: mTLR7 inhibitory activity (% at 1 μM), IL-6
[3] = TNF-α release, read-out: mTLR7 inhibitory activity (% at 1 μM), TNF-α

SMILES	inhibition at 1 µM (mTLR7; [2]) [%]	inhibition at 1 µM (mTLR7; [3]) [%]	further results
Cc1nc(-c2ccc(N3CCN(C(C)C)CC3)cc2)c2cc(CCN3CCOCC3)[nH]c2c1C [Example B6, 4-[2-[4-[4-(4-isopropylpiperazin-1-yl)phenyl]-6,7-dimethyl-1H-pyrrolo[3,2-c]pyridin-2-yl]ethyl]morpholine]	100	100	anti-dsDNA IgG after 9 weeks of treatment ([1]; 10 mg/kg once daily oral, 9 weeks, 10 mg/kg): Significant reduction; mean anti-dsDNA IgG titers after 6 weeks of treatment [1]: trend towards dose dependent reduction
Cc1cc2c(cc(CCN3CCOCC3)n2C)c(-c2ccc(N3CCN(C(C)C)CC3)cc2)n1 [Example B11, 4-[2-[4-[4-(4-isopropylpiperazin-1-yl)phenyl]-1,6-dimethyl-pyrrolo[3,2-c]pyridin-2-yl]ethyl]morpholine]	100	100	mean anti-dsDNA IgG titers after 6 weeks of treatment [1]: dose dependent reduction
Cc1cc2c(cc(CCN3CCOCC3)n2C)c(-c2cccc(N3CCN(C(C)C)CC3)c2)n1 [Example B21, 4-[2-[4-[3-(4-isopropylpiperazin-1-yl)phenyl]-1,6-dimethyl-pyrrolo[3,2-c]pyridin-2-yl]ethyl]morpholine]	100	100	–
COc1cc(-c2nc(C)cc3c2cc(CCN2CCOCC2)n3C)ccc1N1CCN(C(C)C)CC1 [Example B22, 4-[2-[4-[4-(4-isopropylpiperazin-1-yl)-3-methoxy-phenyl]-1,6-dimethyl-pyrrolo[3,2-c]pyridin-2-yl]ethyl]morpholine]	100	100	–
Cc1cc2c(cc(CCN3CCOCC3)n2C)c(-c2ccc(N3CCN(C(C)C)[C@@H](C)C3)cc2)n1 [Example B23, 4-[2-[4-[4-[(3S)-4-isopropyl-3-methyl-piperazin-1-yl]phenyl]-1,6-dimethyl-pyrrolo[3,2-c]pyridin-2-yl]ethyl]morpholine]	100	100	–
Cc1cc2c(cc(CCN3CCOCC3)n2C)c(C2CCC(N3CCN(C(C)C)CC3)CC2)n1 (stereo not drawn) [Example B26, 4-[2-[4-[4-(4-isopropylpiperazin-1-yl)cyclohexyl]-1,6-dimethyl-pyrrolo[3,2-c]pyridin-2-yl]ethyl]morpholine]	–	–	mTLR7 inhibitory activity (% at 1 μM), IL-6 (mTLR7; IL-6 release): 62%; mTLR7 inhibitory activity (% at 1 μM), TNF-α (mTLR7; TNF-α release): 47%
Cc1cc2c(cc(CCN3CCOCC3)n2C)c(C2CCC(N3CCN(C(C)C)CC3)CC2)n1 (stereo not drawn) [Example B27, 4-[2-[4-[4-(4-isopropylpiperazin-1-yl)cyclohexyl]-1,6-dimethyl-pyrrolo[3,2-c]pyridin-2-yl]ethyl]morpholine]	–	–	mTLR7 inhibitory activity (% at 1 μM), IL-6 (mTLR7; IL-6 release): 88%; mTLR7 inhibitory activity (% at 1 μM), TNF-α (mTLR7; TNF-α release): 77%
Cc1cc2c(cc(CCN3CCOCC3)n2C)c(-c2ccc(C3CCN(C(C)C)CC3)cc2)n1 [Example B31, 4-[2-[4-[4-(1-isopropyl-4-piperidyl)phenyl]-1,6-dimethyl-pyrrolo[3,2-c]pyridin-2-yl]ethyl]morpholine]	100	100	–
CC(C)N1CCN(c2ccc(-c3nccc4[nH]c(CCCN5CCOCC5)cc34)cc2)CC1 [Example C1, 4-[3-[4-[4-(4-isopropylpiperazin-1-yl)phenyl]-1H-pyrrolo[3,2-c]pyridin-2-yl]propyl]morpholine]	–	100	–
CN1CCN(c2ccc(-c3nccc4[nH]c(CCCN5CCOCC5)cc34)cc2)CC1 [Example C2, 4-[3-[4-[4-(4-methylpiperazin-1-yl)phenyl]-1H-pyrrolo[3,2-c]pyridin-2-yl]propyl]morpholine]	–	100	–
Cc1cc2[nH]c(CCCN3CCOCC3)cc2c(-c2ccc(N3CCN(C(C)C)CC3)cc2)n1 [Example C3, 4-[3-[4-[4-(4-isopropylpiperazin-1-yl)phenyl]-6-methyl-1H-pyrrolo[3,2-c]pyridin-2-yl]propyl]morpholine]	100	100	–
Cc1cc2[nH]c(CCCN3CCCCC3)cc2c(-c2ccc(N3CCN(C(C)C)CC3)cc2)n1 [Example C5, 4-[4-(4-isopropylpiperazin-1-yl)phenyl]-6-methyl-2-[3-(1-piperidyl)propyl]-1H-pyrrolo[3,2-c]pyridine]	100	97	–
Cc1cc2c(cc(CCCN3CCOCC3)n2C)c(-c2ccc(N3CCN(C(C)C)CC3)cc2)n1 [Example C6, 4-[3-[4-[4-(4-isopropylpiperazin-1-yl)phenyl]-1,6-dimethyl-pyrrolo[3,2-c]pyridin-2-yl]propyl]morpholine]	100	100	–
